One compound from publication PMC6704710, “Preclinical evaluation of 3D185, a novel potent inhibitor of FGFR1/2/3 and CSF-1R, in FGFR-dependent and macrophage-dominant cancer models” (Journal of Experimental & Clinical Cancer Research : CR, 2019) can be followed below.

The inhibition is the drop in the measured response relative to a control, in per cent.

Common to all, as to assay: Eurofins kinase panel
Holding throughout (type): biochemical
Conditions in all cases: read-out: Inhibition rate (%)

One assay addresses T1, MST1(h) (Homo sapiens, UniProt Q13043).
T1 construct: purchased Eurofins (KinaseProfiler)
T1 sequence (Q13043 1-487): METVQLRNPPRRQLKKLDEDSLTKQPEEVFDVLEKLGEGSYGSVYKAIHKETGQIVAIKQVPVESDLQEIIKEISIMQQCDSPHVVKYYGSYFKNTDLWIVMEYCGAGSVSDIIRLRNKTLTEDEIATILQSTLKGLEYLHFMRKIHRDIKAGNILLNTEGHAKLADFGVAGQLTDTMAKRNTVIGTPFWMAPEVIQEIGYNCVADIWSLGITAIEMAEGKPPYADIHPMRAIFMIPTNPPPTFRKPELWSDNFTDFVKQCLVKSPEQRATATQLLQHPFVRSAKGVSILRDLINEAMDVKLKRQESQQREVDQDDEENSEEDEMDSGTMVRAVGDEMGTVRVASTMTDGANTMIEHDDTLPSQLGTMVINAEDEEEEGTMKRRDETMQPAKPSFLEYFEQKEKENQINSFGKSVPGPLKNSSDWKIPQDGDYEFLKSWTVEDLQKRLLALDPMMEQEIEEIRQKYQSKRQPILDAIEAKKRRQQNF

A further assay has as its target T2, MLCK(h) (Homo sapiens, UniProt Q15746).
T2 construct: purchased Eurofins (KinaseProfiler)

The next assay addresses T3, MYLK2(h) (Homo sapiens, UniProt Q9H1R3).
T3 construct: purchased Eurofins (KinaseProfiler)

For another assay, the target named is T4, PKCθ(h) (Homo sapiens, UniProt Q04759).
T4 construct: purchased Eurofins (KinaseProfiler)

For the next assay, the target named is T5, eEF-2K(h) (Homo sapiens, UniProt O00418).
T5 construct: purchased Eurofins (KinaseProfiler)
T5 sequence (O00418 1-725): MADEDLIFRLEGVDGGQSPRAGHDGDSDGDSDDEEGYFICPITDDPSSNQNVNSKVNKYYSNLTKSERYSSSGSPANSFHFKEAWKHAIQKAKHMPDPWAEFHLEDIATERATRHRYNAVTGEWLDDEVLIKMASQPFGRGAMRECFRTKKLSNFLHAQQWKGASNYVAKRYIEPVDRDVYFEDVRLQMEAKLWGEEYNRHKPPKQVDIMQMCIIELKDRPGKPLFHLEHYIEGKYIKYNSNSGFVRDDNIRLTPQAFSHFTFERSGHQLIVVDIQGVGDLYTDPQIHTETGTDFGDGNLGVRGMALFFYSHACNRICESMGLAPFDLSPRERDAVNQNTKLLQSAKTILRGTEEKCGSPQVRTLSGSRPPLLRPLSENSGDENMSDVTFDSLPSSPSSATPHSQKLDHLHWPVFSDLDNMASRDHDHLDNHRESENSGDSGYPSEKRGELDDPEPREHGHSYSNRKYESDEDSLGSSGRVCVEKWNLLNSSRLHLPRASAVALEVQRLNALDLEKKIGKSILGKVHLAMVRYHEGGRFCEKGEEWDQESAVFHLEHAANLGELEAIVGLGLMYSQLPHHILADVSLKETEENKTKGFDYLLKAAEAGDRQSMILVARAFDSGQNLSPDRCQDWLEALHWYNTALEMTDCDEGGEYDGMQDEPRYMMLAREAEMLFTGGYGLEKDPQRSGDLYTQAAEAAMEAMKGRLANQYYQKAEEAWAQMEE

A further assay concerns the target T6, BRK(h) (Homo sapiens, UniProt Q13882).
T6 construct: purchased Eurofins (KinaseProfiler)

The next assay has as its target T7, PKG1α(h) (Homo sapiens, UniProt Q13976).
T7 construct: purchased Eurofins (KinaseProfiler)
T7 sequence (Q13976 1-671): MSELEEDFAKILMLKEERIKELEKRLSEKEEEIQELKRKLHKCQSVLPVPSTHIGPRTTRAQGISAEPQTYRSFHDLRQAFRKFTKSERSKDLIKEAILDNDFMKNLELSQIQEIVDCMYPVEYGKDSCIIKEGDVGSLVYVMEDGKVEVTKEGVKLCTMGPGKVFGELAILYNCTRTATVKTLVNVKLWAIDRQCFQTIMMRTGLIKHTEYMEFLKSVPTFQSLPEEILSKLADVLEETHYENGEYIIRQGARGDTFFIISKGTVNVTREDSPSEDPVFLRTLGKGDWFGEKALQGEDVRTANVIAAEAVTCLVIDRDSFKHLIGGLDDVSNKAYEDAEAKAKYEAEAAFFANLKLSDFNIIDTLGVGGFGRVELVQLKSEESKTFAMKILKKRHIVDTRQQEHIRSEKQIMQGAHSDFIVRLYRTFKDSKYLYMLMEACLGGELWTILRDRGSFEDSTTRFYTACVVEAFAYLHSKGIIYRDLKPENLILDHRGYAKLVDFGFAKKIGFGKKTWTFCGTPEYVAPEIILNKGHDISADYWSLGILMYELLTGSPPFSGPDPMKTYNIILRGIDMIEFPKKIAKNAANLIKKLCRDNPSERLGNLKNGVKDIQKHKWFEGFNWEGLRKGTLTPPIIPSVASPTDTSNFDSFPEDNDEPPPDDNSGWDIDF

The target in a further assay is T8, PAK2(h) (Homo sapiens, UniProt Q13177).
T8 construct: purchased Eurofins (KinaseProfiler)
T8 sequence (Q13177 whole entry): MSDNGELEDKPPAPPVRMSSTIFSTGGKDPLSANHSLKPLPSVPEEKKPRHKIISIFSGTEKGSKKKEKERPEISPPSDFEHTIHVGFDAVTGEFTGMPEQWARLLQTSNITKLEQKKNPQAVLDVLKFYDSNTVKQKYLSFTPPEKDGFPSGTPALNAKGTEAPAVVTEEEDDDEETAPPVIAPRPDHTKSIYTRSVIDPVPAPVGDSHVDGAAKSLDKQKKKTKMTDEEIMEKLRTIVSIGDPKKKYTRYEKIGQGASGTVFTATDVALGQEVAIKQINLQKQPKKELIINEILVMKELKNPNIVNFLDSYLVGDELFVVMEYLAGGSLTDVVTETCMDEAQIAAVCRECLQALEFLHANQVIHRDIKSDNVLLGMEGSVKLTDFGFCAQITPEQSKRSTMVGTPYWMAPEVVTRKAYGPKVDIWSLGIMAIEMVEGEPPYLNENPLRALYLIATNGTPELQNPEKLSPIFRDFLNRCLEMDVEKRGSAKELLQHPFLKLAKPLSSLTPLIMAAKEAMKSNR

T3 sequence (Q9H1R3 whole entry): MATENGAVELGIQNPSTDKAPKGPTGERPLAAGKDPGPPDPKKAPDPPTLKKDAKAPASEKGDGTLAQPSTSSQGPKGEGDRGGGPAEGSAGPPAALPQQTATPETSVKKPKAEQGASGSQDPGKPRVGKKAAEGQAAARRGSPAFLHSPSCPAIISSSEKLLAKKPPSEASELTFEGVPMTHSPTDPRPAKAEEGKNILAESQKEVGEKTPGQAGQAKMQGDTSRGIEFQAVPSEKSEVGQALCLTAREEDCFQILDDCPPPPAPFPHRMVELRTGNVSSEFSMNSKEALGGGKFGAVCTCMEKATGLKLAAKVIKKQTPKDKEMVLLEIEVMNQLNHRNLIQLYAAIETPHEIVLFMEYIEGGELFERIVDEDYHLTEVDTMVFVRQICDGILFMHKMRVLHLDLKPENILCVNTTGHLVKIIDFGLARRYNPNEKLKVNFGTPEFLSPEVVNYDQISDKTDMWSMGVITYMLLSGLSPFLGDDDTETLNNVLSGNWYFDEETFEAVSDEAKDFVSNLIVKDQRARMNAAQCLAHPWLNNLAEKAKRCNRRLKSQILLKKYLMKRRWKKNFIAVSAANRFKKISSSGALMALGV
T6 sequence (Q13882 whole entry): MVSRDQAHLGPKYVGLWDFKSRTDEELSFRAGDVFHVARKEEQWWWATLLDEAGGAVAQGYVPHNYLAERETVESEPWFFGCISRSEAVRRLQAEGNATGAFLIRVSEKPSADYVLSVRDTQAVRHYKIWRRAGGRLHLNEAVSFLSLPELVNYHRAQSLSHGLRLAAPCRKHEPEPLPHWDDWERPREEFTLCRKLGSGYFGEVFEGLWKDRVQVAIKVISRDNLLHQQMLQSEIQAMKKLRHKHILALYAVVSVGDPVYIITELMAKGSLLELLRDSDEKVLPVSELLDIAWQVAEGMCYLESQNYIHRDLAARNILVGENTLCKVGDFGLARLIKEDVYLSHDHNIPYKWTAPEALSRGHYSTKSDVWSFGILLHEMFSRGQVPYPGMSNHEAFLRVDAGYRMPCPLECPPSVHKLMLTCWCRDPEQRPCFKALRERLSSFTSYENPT
T4 sequence (Q04759 whole entry): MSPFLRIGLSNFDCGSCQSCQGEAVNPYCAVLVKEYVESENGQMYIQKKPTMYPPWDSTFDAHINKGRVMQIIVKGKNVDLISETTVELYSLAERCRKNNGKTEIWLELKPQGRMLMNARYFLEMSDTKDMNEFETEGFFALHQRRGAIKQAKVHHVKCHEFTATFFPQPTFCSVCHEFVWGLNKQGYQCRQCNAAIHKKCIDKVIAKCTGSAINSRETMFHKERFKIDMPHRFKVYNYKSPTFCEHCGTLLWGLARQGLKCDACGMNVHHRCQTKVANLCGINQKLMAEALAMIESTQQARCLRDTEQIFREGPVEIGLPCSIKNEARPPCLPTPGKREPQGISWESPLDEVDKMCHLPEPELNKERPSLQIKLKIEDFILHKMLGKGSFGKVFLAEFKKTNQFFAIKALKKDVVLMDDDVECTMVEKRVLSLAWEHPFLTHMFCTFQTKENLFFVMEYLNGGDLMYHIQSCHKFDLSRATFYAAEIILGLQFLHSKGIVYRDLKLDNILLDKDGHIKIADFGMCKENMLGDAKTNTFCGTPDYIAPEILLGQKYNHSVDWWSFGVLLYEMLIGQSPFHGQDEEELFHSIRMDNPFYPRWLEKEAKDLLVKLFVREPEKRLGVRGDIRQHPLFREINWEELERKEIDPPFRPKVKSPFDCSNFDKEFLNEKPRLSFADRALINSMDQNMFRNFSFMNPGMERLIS
T2 sequence (Q15746 whole entry): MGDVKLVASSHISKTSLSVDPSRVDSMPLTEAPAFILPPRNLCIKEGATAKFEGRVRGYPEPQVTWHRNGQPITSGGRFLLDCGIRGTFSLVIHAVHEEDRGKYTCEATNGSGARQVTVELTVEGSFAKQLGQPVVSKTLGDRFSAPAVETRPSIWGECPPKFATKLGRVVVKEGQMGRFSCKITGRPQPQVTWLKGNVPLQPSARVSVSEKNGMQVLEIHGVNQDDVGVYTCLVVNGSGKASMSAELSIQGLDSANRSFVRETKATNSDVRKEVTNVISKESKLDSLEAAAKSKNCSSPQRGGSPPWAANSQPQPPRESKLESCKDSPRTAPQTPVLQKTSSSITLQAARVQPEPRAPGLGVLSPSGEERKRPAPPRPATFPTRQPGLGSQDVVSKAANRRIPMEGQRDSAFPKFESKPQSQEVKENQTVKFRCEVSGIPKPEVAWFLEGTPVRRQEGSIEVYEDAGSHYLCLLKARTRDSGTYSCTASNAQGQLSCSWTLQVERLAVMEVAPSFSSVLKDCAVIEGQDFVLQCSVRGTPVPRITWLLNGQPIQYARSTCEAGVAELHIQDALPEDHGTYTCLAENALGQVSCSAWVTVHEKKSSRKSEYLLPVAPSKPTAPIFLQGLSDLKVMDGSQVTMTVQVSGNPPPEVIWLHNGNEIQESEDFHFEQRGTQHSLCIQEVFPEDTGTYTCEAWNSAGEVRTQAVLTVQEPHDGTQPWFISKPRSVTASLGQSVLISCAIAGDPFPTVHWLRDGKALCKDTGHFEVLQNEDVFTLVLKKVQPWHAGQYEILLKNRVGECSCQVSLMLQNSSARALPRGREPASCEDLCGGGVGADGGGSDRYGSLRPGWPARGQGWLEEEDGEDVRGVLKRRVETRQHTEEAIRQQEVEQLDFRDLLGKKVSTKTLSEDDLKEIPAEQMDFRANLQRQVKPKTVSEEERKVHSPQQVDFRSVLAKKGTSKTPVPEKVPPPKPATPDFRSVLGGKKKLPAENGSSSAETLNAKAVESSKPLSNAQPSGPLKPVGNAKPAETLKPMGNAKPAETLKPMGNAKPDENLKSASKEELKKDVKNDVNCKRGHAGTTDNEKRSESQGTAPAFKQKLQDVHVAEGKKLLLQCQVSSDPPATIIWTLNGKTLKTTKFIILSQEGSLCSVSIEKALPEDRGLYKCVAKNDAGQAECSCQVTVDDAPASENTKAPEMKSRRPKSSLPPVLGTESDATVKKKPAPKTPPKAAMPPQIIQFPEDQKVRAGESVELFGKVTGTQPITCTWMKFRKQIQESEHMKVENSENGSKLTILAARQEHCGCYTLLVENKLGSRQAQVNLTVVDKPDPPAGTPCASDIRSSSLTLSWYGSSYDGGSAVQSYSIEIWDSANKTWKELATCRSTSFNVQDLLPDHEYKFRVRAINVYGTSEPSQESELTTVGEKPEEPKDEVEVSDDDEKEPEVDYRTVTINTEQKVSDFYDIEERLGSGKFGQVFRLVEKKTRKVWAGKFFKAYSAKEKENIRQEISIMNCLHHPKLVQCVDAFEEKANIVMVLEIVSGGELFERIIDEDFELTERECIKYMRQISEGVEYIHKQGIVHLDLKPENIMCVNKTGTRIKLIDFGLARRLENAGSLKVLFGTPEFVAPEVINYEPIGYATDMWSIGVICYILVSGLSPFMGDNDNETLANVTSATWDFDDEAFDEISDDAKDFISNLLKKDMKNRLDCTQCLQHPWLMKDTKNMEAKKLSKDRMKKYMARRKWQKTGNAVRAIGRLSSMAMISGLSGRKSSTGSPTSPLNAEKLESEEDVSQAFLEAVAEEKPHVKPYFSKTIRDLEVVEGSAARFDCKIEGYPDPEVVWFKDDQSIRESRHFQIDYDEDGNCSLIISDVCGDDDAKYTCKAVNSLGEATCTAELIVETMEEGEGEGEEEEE

As for `COc1cc(OC)c(Cl)c(-c2ccc3c(NC(=O)c4ccc(N5CCNC(C)(C)C5)cc4)n[nH]c3n2)c1Cl` [3D185], the inhibition at 0.01 µM at MST1(h) (10 nM) is 2%; on MLCK(h) (10 nM), 5%; at MYLK2(h) (10 nM), 7%; on PKCθ(h) (10 nM), -3%; on eEF-2K(h) (10 nM), 4%; at BRK(h) (10 nM), -5%. Moreover, the inhibition at 0.01 µM at PKG1α(h) (10 nM) is -1%; on PAK2(h) (10 nM), 5%. Further, the inhibition at 0.1 µM is 11% at MST1(h) (100 nM); -1% at MLCK(h) (100 nM); 0% at MYLK2(h) (100 nM); -4% on PKCθ(h) (100 nM); 2% on eEF-2K(h) (100 nM); 7% at BRK(h) (100 nM). The inhibition at 0.1 µM at PKG1α(h) (100 nM) was -2%; at PAK2(h) (100 nM), -5%. The inhibition at 1 µM on MST1(h) (1000 nM) is 32%; on MLCK(h) (1000 nM), 11%; at MYLK2(h) (1000 nM), 21%; on PKCθ(h) (1000 nM), 1%; at eEF-2K(h) (1000 nM) it was 11%; on BRK(h) (1000 nM) it was 46%. In addition, the values for the inhibition at 1 µM at PKG1α(h) (1000 nM) and at PAK2(h) (1000 nM) were 1% and -5%, respectively.
